Source: patent publication US20050221196A1, “Redox shuttle for rechargeable lithium-ion cell” (priority 2004, published 2005)
Values belong to the compound of their own block, whether it stands above or below them.

How the values were obtained:
[1] = Shuttle molecules tested in LiFePO4/graphite and LiFePO4/Li4/3Ti5/3O4 coin cells, C/10, 100% overcharge; settings: 0.1M shuttle, 0.7 M LiBOB PC:DMC:EC:DEC 1:2:1:2
Procedure: A variety of shuttle molecules (obtained from Aldrich Chemical Co. and used without further purification) were tested in LiFePO4/graphite and LiFePO4/Li4/3Ti5/3O4 coin cells. The LiFePO4 was obtained from Phostech Lithium as in Example 1 and the Li4/3Ti5/3O4 was obtained from NEI Corp. (Piscataway, N.J., USA). The graphite used was mesocarbon microbeads (MCMB) heat treated to near 2650° C. Electrodes were made from the active materials 10% by weight Super S carbon black (MMM Carbon, Belgium) and 10% by weight PVDF binder. LiFePO4 and Li4/3Ti5/3O4 electrodes were coated on aluminum foil and MCMB electrodes were coated on copper foil. […] The electrolyte was 0.7 M LiBOB in a 1:2:1:2 by volume mixture of PC:DMC:EC:DEC. The shuttle molecule was added in a concentration of 0.1M. Coin cells were charged using currents corresponding to a normal recharge in 10 hours (C/10) to 200% of their normal charge capacity (100% overcharge) or until a specified upper cut-off potential (normally 4.9V versus Li/Li^+) was reached, which ever occurred first and tested until the shuttle ceased to function. Four shuttles were employed, namely 1,3,5-tri-t-butyl-2-methoxybenzene (Example 9), 5-t-butyl-1,3-dinitro-2-methoxybenzene (Example 10), 2-t-butyl-4,6-dinitro-5-methylanisole (Example 11) and 4-t-butyl-2,6-diaminoanisole (Comparison Example 10). The coin cell test results are set out below in Table 2: […]

[2] = Shuttle potential versus sequentially increased charge current in coin cell (Imax)
From the text: According to the literature (Richardson et al., J. Electrochem. Soc. Vol. 143, 3992 (1996)) the maximum shuttle current for a singly ionized shuttle is given by Imax=FAD C/d, [1] where F is Faraday's number, A is the electrode area, D is an effective diffusion constant of the shuttle species (taking into account both oxidized and reduced forms of the shuttle), C is the total concentration of the shuttle species and d is the distance between the electrodes. To obtain a large shuttle current, the electrolyte should impart a large diffusion constant, D, to the shuttle and support a high shuttle concentration, C. The shuttle diffusion constant usually will increase as the electrolyte solution viscosity decreases. A variety of charge carrying media may be employed in the electrolyte. Exemplary media are liquids or gels capable of solubilizing sufficient quantities of the lithium salt and the redox chemical shuttle so that a suitable quantity of charge can be transported from the positive electrode to negative electrode. […]
Further testing was carried out in coin cells made using 0.2 M 2,5-di-tert-butyl-1,4-dimethoxybenzene and 0.5 M LiBOB in 1:2 PC:DEC. […] Using cyclic voltammetry, the shuttle diffusion constant was determined to be 1.6×10^−6 cm^2/sec. […]

[3] = Maximum solubility of shuttle in electrolyte, determined visually; assay type: physicochemical; settings: in the Example 1 and Example 2 electrolyte (0.7 M LiBOB EC:DEC 1:2)
Procedure: Solubility limits were determined visually, after extended mixing.

[4] = Extended shuttle-protected overcharge cycling, LiFePO4/graphite cell, 100% overcharge each cycle; settings: 0.2 M shuttle, 0.5 M LiBOB in 1:2 PC:DEC
Procedure: Further testing was carried out to evaluate currents up to 1/3 of Imax in extended shuttle-protected overcharge tests. […] The shuttle plateau is near 3.9 V because the graphite electrode is near 0 V vs Li/Li^+ when the Li-ion coin cell is fully charged. The charging current was 0.55 mA, which corresponds to about a C/2-rate for the electrodes of this cell. The shuttle continues to perform well after 200 charge discharge cycles. […] In this case, the shuttle was able to protect against overcharge for about 190 cycles, followed by disappearance of the shuttle effect over the next few cycles. […] The loss of shuttle effect at high C rates may have been due to the Li4/3Ti5/3O4 negative electrode dropping below its plateau potential (1.55 V) before reaching the fully discharged state.

[5] = Cyclic voltammetry shuttle diffusion constant; assay type: physicochemical
Procedure: Further testing was carried out in coin cells made using 0.2 M 2,5-di-tert-butyl-1,4-dimethoxybenzene and 0.5 M LiBOB in 1:2 PC:DEC. […] For this cell the shuttle was singly ionized, the initially estimated electrode area was 1.3 cm^2 and the initially estimated electrode spacing was defined by the 25 μm separator. Based on measurements of the shuttle potential versus applied current, the effective diffusion constant D was estimated to be about 7×10^−7 cm^2/sec, and the maximum current density carried by the shuttle was estimated to be about 2.3 mA/cm^2. Using cyclic voltammetry, the shuttle diffusion constant was determined to be 1.6×10^−6 cm^2/sec. […] Thus, the effective area was less than 1.3 cm^2 and the effective length was greater than 25 μm.

Structure (SMILES): COc1c([N+](=O)[O-])cc(C(C)(C)C)cc1[N+](=O)[O-] [Example 10, 5-t-butyl-1,3-dinitro-2-methoxybenzene]
Potential V, Li/Li^+ [1]: 4.9 V

Structure (SMILES): COc1c(C(C)(C)C)cc([N+](=O)[O-])c(C)c1[N+](=O)[O-] [Example 11, 2-t-butyl-4,6-dinitro-5-methylanisole]
Potential V, Li/Li^+ [1]: 4.9 V

Continued, values first:

Potential V, Li/Li^+ [1]: 4.4 V
Structure (SMILES): COc1c(N)cc(C(C)(C)C)cc1N [Comp. Ex. 5, 4-t-butyl-2,6-diaminoanisole, reference compound]

Potential V, Li/Li^+ [1]: 4.4 V
Structure (SMILES): COc1c(C(C)(C)C)cc(C(C)(C)C)cc1C(C)(C)C [Example 9, 1,3,5-tri-t-butyl-2-methoxybenzene]

potential at which the shuttle became oxidized at the LiFePO4 positive electrode ([2]; 0.2 M shuttle, 0.5 M LiBOB in 1:2 PC:DEC): about 3.9 V vs Li/Li^+
effective diffusion constant D (estimated from shuttle potential versus applied current) ([2]; electrode area 1.3 cm^2, 25 μm separator): about 7×10^−7 cm^2/sec
maximum room temperature solubility [3]: ~90 mM
shuttle plateau [4]: ~3.9 V
shuttle diffusion constant [5]: 1.6×10^−6 cm^2/sec
Structure (SMILES): COc1cc(C(C)(C)C)c(OC)cc1C(C)(C)C [2,5-di-tert-butyl-1,4-dimethoxybenzene]
